Measurements: US8853264B2, “Use of lignan compounds for treating or preventing inflammatory disease” (Newtree Industry Co., Ltd., priority 2005, dated 2014)

System: edemas of the rat ears induced by TPA
Assay: TPA-induced rat ear edema inhibition test
Format: in vivo, Wistar rats
Conditions: for Edema thickness: topical in acetone 30 min after TPA, measured after 8 hours
Protocol: The anti-inflammatory activity of the lignan compound isolated and purified in <Example 1> was tested in animal models. The anti-inflammatory activity was measured by edema inhibition test on rats. As the test animals, 5-week-old Wistar rats (DaeHan Biolink Co., Ltd, Korea) were used. The animals were provided with standard pellet forming rat feed (Cheiljedang Corporation, Korea) and given freely to feed and water. Also, the animals were housed in conditions of 12-hr light/12-hr dark cycle, temperature of 25±2° C. and humidity of 60±10%. Inflammation inducing agent TPA (12-O-tetradecanoylphorbol-13-acetate; Sigma) was dissolved in acetone to a concentration of 200 μg/mL. The edemas of the rat ears were induced by applying the TPA solution locally to each of the outer and inner faces of the ear in an amount of 10 μl/ear (4 μg/ear). The macelignan purified in <Example 1> and non-steroidal anti-inflammatory drug indomethacin as a control substance were dissolved in acetone and used in amounts of 20, 200 and 2000 μg/ear. Each of the macelignan and the indomethacin was applied locally to the rat ears at 30 minutes after treatment with TPA. A control group was locally applied with acetone. The thickness of the rat ears was measured with a caliper 8 hours after treatment with each of the substances. An increase in the ear thickness in the group treated with the sample was compared to that of the group untreated with the sample, and inflammation inhibitory effect was measured by calculating percent edema inhibition.

COc1ccc2c(c1)c(CC(=O)O)c(C)n2C(=O)c1ccc(Cl)cc1 [indomethacin, reference compound]
Edema inhibition (dose 20 μg/ear): 25.0%
Edema thickness (dose 20 μg/ear): 185 ± 5 μm
Edema inhibition (dose 200 μg/ear): 56.5%
Edema thickness (dose 200 μg/ear): 108 ± 8 μm
Edema inhibition (dose 2000 μg/ear): 74.2%
Edema thickness (dose 2000 μg/ear): 64 ± 7 μm
